Like-named read-outs stand apart in the source and are kept apart here.
Assays:
[1] = tested on: 786-O-Hif-Luc cells; test: Luciferase Assay; type: cell-based; settings: read-out: Luciferase EC50
Protocol: A pool of infected cells were then selected against 2 μg/mL of puromycin (P8833, Sigma) for 10 days followed by limited dilution to select single clones.
Each concentration was tested in triplicate. After about 24 hours, luciferase activity was determined using ONE-Glo Luciferase Assay Reagent (E6110, Promega) following the manufacturer's recommended procedure. EC50 were calculated by using Dotmatics software.

[2] = tested on: 786-0 cells; test: VEGF ELISA Assay; type: cell-based
Protocol: Each concentration had duplicated wells. About 20 hours later, medium was removed by suction and each well was supplied with 180 μL of growth medium. About 20 μl freshly-made 10× compound stocks were added to each well. […] The EC50 was calculated by GraphPad Prism using the dose-response-inhibition (four parameter) equation. The cell seeded plate was then subjected to CellTiter-Glo luminescence cell viability assay (Promega) by adding 50 μL of Celltiter Glo reagent into each well and shaking the plate for 8 minutes at 550 rpm (Thermomixer R, Eppendorf) then read luminescence signal in plate reader (3 second delay, 0.5 second/well integration time, Synergy 2 multi Detection Microplate reader) immediately.

[3] = target: T1, HIF-2α HIS TAG-PASB Domain (Homo sapiens, UniProt Q99814); test: HIF-2α Scintillation Proximity Assay (SPA); type: binding; settings: 100 nM HIF-2α HIS TAG-PASB Domain
T1 construct: 100 nM HIF-2α HIS TAG-PASB Domain
T1 sequence (Q99814 240-350 limits assumed): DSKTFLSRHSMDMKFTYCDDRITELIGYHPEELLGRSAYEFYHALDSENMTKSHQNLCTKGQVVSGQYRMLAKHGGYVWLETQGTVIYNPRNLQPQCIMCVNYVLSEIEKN
Summary of the method: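 IC50 values rest on percent inhibition, where the sample signal is scaled between high and low controls. Wells contain about 100 μL: compound dispensed as 2 μL of DMSO solution, 88 μL protein-probe mix and 10 μL of beads.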

[4] = 24 h, 786-O-Hif-Luc cells, about 24 hours
[5] = Homo sapiens, 786-0, 786-0 cells, VEGFA concentration in cell culture medium, read-out: VEGF ELISA EC50
[6] = 150 nM Compound 211 probe, read-out: SPA IC50
[7] = 786-0 cells, VEGFA concentration in cell culture medium, read-out: VEGF ELISA EC50
[8] = 786-O-Hif-Luc cells, about 24 hours
[9] = SPA IC50, 150 nM Compound 211 probe
[10] = Homo sapiens, 786-0, read-out: VEGF ELISA EC50

Row | Structure (SMILES) | EC50 [1, 4] [nM] | EC50 [2, 5] [nM] | IC50 [3, 6] [nM] | further results
1 | CS(=O)(=NC#N)c1ccc(Oc2cc(F)cc(C#N)c2)c2c1[C@H](O)C(F)(F)C2 (single isomer, unassigned) [Compound 20] | 28 | 67 | 27 | –
2 | N#Cc1cc(F)cc(Oc2ccc(S(=N)(=O)CF)c3c2CC(F)(F)[C@H]3O)c1 (single isomer, unassigned) [Compound 38] | 195 | 1440 | 94 | –
3 | N#Cc1cc(F)cc(Oc2ccc(S(=N)(=O)C(F)(F)F)c3c2CC(F)(F)[C@H]3O)c1 (single isomer, unassigned) [Compound 69] | – | 20 | < 5 | –
4 | N#Cc1cc(F)cc(Oc2ccc(S(=N)(=O)C(F)(F)F)c3c2CC(F)(F)[C@H]3O)c1 (single isomer, unassigned) [Compound 70] | – | – | < 5 | EC50 [2, 7]: 19 nM
5 | CS(=O)(=NC#N)c1ccc(Oc2cc(F)cc(C#N)c2)c2c1[C@H](O)C(F)(F)[C@@H]2F (single isomer, unassigned) [Compound 80] | 12 | 17 | < 5 | –
6 | CS(=O)(=NC#N)c1ccc(Oc2cc(F)cc(C#N)c2)c2c1[C@H](O)C(F)(F)[C@@H]2F (single isomer, unassigned) [Compound 81] | – | – | < 5 | EC50 [2, 7]: 14 nM
7 | CS(=O)(=NC#N)c1ccc(Oc2cncc(C#N)c2)c2c1[C@H](O)C(F)(F)[C@@H]2F (single isomer, unassigned) [Compound 83] | 83 | 95 | 14 | –
8 | CS(=O)(=NC#N)c1ccc(Oc2cncc(C#N)c2)c2c1[C@H](O)C(F)(F)[C@@H]2F (single isomer, unassigned) [Compound 85] | – | – | 32 | EC50 [1, 8]: 114 nM; EC50 [2, 7]: 190 nM
9 | N=S1(=O)c2ccc(Oc3cc(F)cc(F)c3)c(C(F)F)c2C(O)C1(F)F (single isomer, unassigned) [Compound 162, 4-(Difluoromethyl)-5-(3,5-difluorophenoxy)-2,2-difluoro-3-hydroxy-1-imino-2,3-dihydro-1H-1λ^4-benzo[b]thiophene 1-oxide] | 69 | 90 | 29 | –
10 | N#Cc1cc(F)cc(Oc2ccc(S(=O)(=O)CF)c3c2CC(F)(F)[C@H]3O)c1 [Compound 3, (S)-3-((2,2-difluoro-7-((fluoromethyl)sulfonyl)-1-hydroxy-2,3-dihydro-1H-inden-4-yl)oxy)-5-fluorobenzonitrile] | 7 | 20 | – | IC50 [3, 9]: < 5 nM
11 | Cc1cc(C#N)cc(Oc2ccc(S(=O)(=O)CF)c3c2CC(F)(F)[C@H]3O)c1 [Compound 7, (S)-3-((2,2-Difluoro-7-((fluoromethyl)sulfonyl)-1-hydroxy-2,3-dihydro-1H-inden-4-yl)oxy)-5-methylbenzonitrile] | 34 | 70 | < 5 | –
12 | N#Cc1cc(F)cc(Oc2ccc(S(=O)(=O)C(F)(F)F)c3c2CC(F)(F)[C@H]3O)c1 [Compound 8, (S)-3-((2,2-Difluoro-1-hydroxy-7-((trifluoromethyl)sulfonyl)-2,3-dihydro-1H-inden-4-yl)oxy)-5-fluorobenzonitrile] | 3 | 4 | – | IC50 [3, 9]: < 5 nM
13 | O=S(=O)(c1ccc(Oc2cncc(Cl)c2)c2c1[C@H](O)C(F)(F)C2)C(F)(F)F [Compound 9, (S)-4-((5-Chloropyridin-3-yl)oxy)-2,2-difluoro-7-((trifluoromethyl)sulfonyl)-2,3-dihydro-1H-inden-1-ol] | 11 | 13 | < 5 | –
14 | N#Cc1cncc(Oc2ccc(S(=O)(=O)C(F)(F)F)c3c2C[C@@H](F)[C@H]3O)c1 [Compound 14, 5-(((1S,2R)-2-Fluoro-1-hydroxy-7-((trifluoromethyl)sulfonyl)-2,3-dihydro-1H-inden-4-yl)oxy)nicotinonitrile] | 25 | 69 | < 5 | –
15 | O=S(=O)(c1ccc(Oc2ccc(F)c3[nH]ncc23)c2c1[C@H](O)C(F)(F)C2)C(F)(F)F [Compound 30, (S)-2,2-difluoro-4-((7-fluoro-1H-indazol-4-yl)oxy)-7-((trifluoromethyl)sulfonyl)-2,3-dihydro-1H-inden-1-ol] | 30 | 54 | – | –
16 | N#Cc1cc(Oc2ccc(S(=O)(=O)C(F)(F)F)c3c2CC(F)(F)[C@H]3O)c[n+]([O-])c1 [Compound 31, (S)-3-cyano-5-((2,2-difluoro-1-hydroxy-7-((trifluoromethyl)sulfonyl)-2,3-dihydro-1H-inden-4-yl)oxy)pyridine 1-oxide] | 160 | 830 | 110 | –
17 | N#Cc1cc(F)cc(Oc2ccc(C(F)(F)F)c3c2CC(F)(F)[C@H]3O)c1 [Compound 37, 3-[(1S)-2,2-Difluoro-1-hydroxy-7-(trifluoromethyl)indan-4-yl]oxy-5-fluoro-benzonitrile] | 5 | 6 | < 5 | –
18 | CS(=O)(=O)c1ccc(Oc2cc(F)cc(C#N)c2)c2c1[C@H](O)C(F)(F)[C@@H]2F [Compound 56, 3-fluoro-5-[(1S,3R)-2,2,3-trifluoro-1-hydroxy-7-methylsulfonyl-indan-4-yl]oxy-benzonitrile] | – | – | < 5 | EC50 ([1]; 24 h): 3 nM; EC50 [2, 10]: 6 nM
19 | N#Cc1cncc(Oc2ccc(C(F)(F)F)c3c2CC(F)(F)[C@H]3O)c1 [Compound 67, 5-[(1S)-2,2-difluoro-1-hydroxy-7-(trifluoromethyl)indan-4-yl]oxypyridine-3-carbonitrile] | 35 | 64 | 37 | –
20 | CS(=O)(=O)c1ccc(Oc2cc(F)cc(Br)c2)c2c1[C@H](O)C(F)(F)C2 [Compound 68, (S)-4-(3-bromo-5-fluorophenoxy)-2,2-difluoro-7-(methylsulfonyl)-2,3-dihydro-1H-inden-1-ol] | 22 | 62 | < 5 | –
21 | O=S(=O)(c1ccc(Oc2cncc(F)c2)c2c1[C@H](O)C(F)(F)C2)C(F)(F)F [Compound 73, (S)-2,2-difluoro-4-((5-fluoropyridin-3-yl)oxy)-7-((trifluoromethyl)sulfonyl)-2,3-dihydro-1H-inden-1-ol] | 9 | 26 | < 5 | –
22 | O=S(=O)(c1ccc(Oc2cc(F)c[n+]([O-])c2)c2c1[C@H](O)C(F)(F)C2)C(F)(F)F [Compound 74, (S)-3-((2,2-difluoro-1-hydroxy-7-((trifluoromethyl)sulfonyl)-2,3-dihydro-1H-inden-4-yl)oxonio)-5-fluoropyridine 1-oxide] | 113 | 140 | 16 | –
23 | N#Cc1cncc(Oc2ccc(S(=N)(=O)C(F)(F)F)c3c2CC(F)(F)[C@H]3O)c1 (stereo partly drawn) [Compound 78, 5-(((1S)-2,2-difluoro-1-hydroxy-7-(S-(trifluoromethyl)sulfonimidoyl)-2,3-dihydro-1H-inden-4-yl)oxy)nicotinonitrile] | 148 | 83 | 25 | –
24 | N#Cc1cncc(Oc2ccc(S(=N)(=O)C(F)(F)F)c3c2CC(F)(F)[C@H]3O)c1 (stereo partly drawn) [Compound 79, 5-(((1S)-2,2-difluoro-1-hydroxy-7-(S-(trifluoromethyl)sulfonimidoyl)-2,3-dihydro-1H-inden-4-yl)oxy)nicotinonitrile] | – | – | 23 | EC50 [1, 8]: 106 nM; EC50 [2, 7]: 116 nM
25 | CS(=O)(=O)c1ccc(Oc2cncc(C#N)c2)c2c1[C@H](O)C(F)(F)C2 [Compound 89, (S)-5-((2,2-Difluoro-1-hydroxy-7-(methylsulfonyl)-2,3-dihydro-1H-inden-4-yl)oxy)nicotinonitrile] | 488 | 146 | 180 | –
26 | CS(=O)(=O)c1ccc(Oc2ccc(F)c(C#N)c2)c2c1[C@H](O)C(F)(F)[C@@H]2F [Compound 91, 2-Fluoro-5-(((1S,3R)-2,2,3-trifluoro-1-hydroxy-7-(methylsulfonyl)-2,3-dihydro-1H-inden-4-yl)oxy)benzonitrile] | 129 | 273 | 28 | –
27 | N#Cc1cc(F)cc(Oc2ccc(S(N)(=O)=O)c3c2[C@@H](F)C(F)(F)[C@H]3O)c1 [Compound 102, (1R,3S)-7-(3-cyano-5-fluoro-phenoxy)-1,2,2-trifluoro-3-hydroxy-indane-4-sulfonamide] | – | – | – | EC50 ([1]; 24 h): 6 nM; EC50 [2, 10]: 11 nM
28 | O=S1(=O)c2ccc(Oc3cc(F)cc(Cl)c3)c(Br)c2C(O)C1(F)F (stereo not drawn) [Compound 119, 4-Bromo-5-(3-chloro-5-fluorophenoxy)-2,2-difluoro-3-hydroxy-2,3-dihydrobenzo[b]thiophene 1,1-dioxide] | – | – | – | EC50 [1, 8]: 46 nM; EC50 ([2]; Homo sapiens, 786-0 cells, VEGFA concentration in cell culture medium, read-out: VEGF ELISA EC50): 64 nM
